Experimental data reported in ChEMBL document CHEMBL1201862, “PubChem BioAssay data set” (2004).
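Interpolation was linear, between the two tested concentrations surrounding the appropriate level; five concentrations were tested over 48 hours in 96-well plates. The concentration for 50% growth inhibition is given as GI50.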 Activity calls are given as the source filed them. Cut-off read from the data, not from the text of the source: active = GI50 up to about 1.1 µM and inactive = higher.

Legend:
Assay in all cases: growth of human tumour cells (NCI), 48 h
[1] = test system: SK-MEL-28
[2] = test system: RXF 393
[3] = test system: HCT-116
[4] = test system: MDA-MB-231
[5] = test system: NCI-H460
[6] = test system: NCI-H522
[7] = test system: UACC-62
[8] = test system: K562
[9] = test system: PC-3
[10] = test system: SN12C
[11] = test system: HT-29
[12] = test system: T47D
[13] = test system: COLO 205
[14] = test system: U-251
[15] = test system: Hs-578T
[16] = test system: DU-145
[17] = test system: OVCAR-3
[18] = test system: ACHN
[19] = test system: Malme-3M
[20] = test system: CAKI-1

| Structure (SMILES) | GI50 [1] | GI50 [2] | GI50 [3] | GI50 [4] | GI50 [5] | GI50 [6] | GI50 [7] | GI50 [8] | GI50 [9] | GI50 [10] | GI50 [11] | GI50 [12] | GI50 [13] | GI50 [14] | GI50 [15] | GI50 [16] | GI50 [17] | GI50 [18] | GI50 [19] | GI50 [20] |
| --- | --- | --- | --- | --- | --- | --- | --- | --- | --- | --- | --- | --- | --- | --- | --- | --- | --- | --- | --- | --- |
| c1ccc2c(c1)[nH]c1c3ccccc3sc21 | > 100 µM (inactive) | 26.5 µM (inactive) | 82.6 µM (inactive) | > 100 µM (inactive) | > 100 µM (inactive) | > 100 µM (inactive) | > 100 µM (inactive) | > 100 µM (inactive) | > 100 µM (inactive) | > 100 µM (inactive) | > 100 µM (inactive) | 38.3 µM (inactive) | > 100 µM (inactive) | 89.3 µM (inactive) | > 100 µM (inactive) | > 100 µM (inactive) | > 100 µM (inactive) | > 100 µM (inactive) | > 100 µM (inactive) | > 100 µM (inactive) |
| COc1c(-c2nc3ccc(N4CCN(C)CC4)cc3[nH]2)cc(OC)c2[nH]c(COC(C)=O)nc12 | > 100 µM (inactive) | 11.8 µM (inactive) | 32.4 µM (inactive) | 34.2 µM (inactive) | 43.1 µM (inactive) | 48.9 µM (inactive) | > 100 µM (inactive) | 56.6 µM (inactive) | 37.1 µM (inactive) | 41.4 µM (inactive) | 36.7 µM (inactive) | 24.8 µM (inactive) | 50.1 µM (inactive) | 48.3 µM (inactive) | > 100 µM (inactive) | 26.1 µM (inactive) | > 100 µM (inactive) | 63.4 µM (inactive) | 25.1 µM (inactive) | > 100 µM (inactive) |
| COC(=O)/C=C1/OC(c2ccccc2)=C(Cl)C1=O | 21.1 µM (inactive) | 15.7 µM (inactive) | 13.1 µM (inactive) | 18.8 µM (inactive) | 25 µM (inactive) | 17.9 µM (inactive) | 18 µM (inactive) | 6.07 µM (inactive) | 15.2 µM (inactive) | 23.1 µM (inactive) | 22.3 µM (inactive) | 19.1 µM (inactive) | 15.9 µM (inactive) | 14 µM (inactive) | 21.5 µM (inactive) | 29 µM (inactive) | 16.7 µM (inactive) | 17.7 µM (inactive) | 18.4 µM (inactive) | 18.2 µM (inactive) |
| COc1c(OC)c(OC)c2c(=O)c(OC)c(-c3ccc4c(c3)OCO4)oc2c1OC | > 100 µM (inactive) | > 100 µM (inactive) | 86.7 µM (inactive) | > 100 µM (inactive) | > 100 µM (inactive) | > 100 µM (inactive) | > 100 µM (inactive) | 64.7 µM (inactive) | 69.2 µM (inactive) | > 100 µM (inactive) | > 100 µM (inactive) | 41.9 µM (inactive) | > 100 µM (inactive) | > 100 µM (inactive) | > 100 µM (inactive) | > 100 µM (inactive) | > 100 µM (inactive) | 68.7 µM (inactive) | > 100 µM (inactive) | > 100 µM (inactive) |
| CCCCCc1cc2cc3c(c(O)c2c(=O)[nH]1)C1(CCC3)C(=O)c2c(O)c3c(c(O)c2C1=O)C(=O)C(OC)=CC3=O (stereo not given) | 1.29 µM (inactive) | 0.673 µM (active) | 0.561 µM (active) | 0.792 µM (active) | 0.757 µM (active) | 0.59 µM (active) | 0.916 µM (active) | 0.42 µM (active) | 1.1 µM (active) | 1.01 µM (active) | 0.748 µM (active) | 0.0959 µM (active) | 0.276 µM (active) | 0.621 µM (active) | 0.743 µM (active) | 0.822 µM (active) | 0.499 µM (active) | 0.552 µM (active) | 0.468 µM (active) | 0.502 µM (active) |
| Oc1cc(-c2ccccc2Cl)nc2cc3c(cc12)OCO3 | 0.0638 µM (active) | 0.0416 µM (active) | 0.0528 µM (active) | 0.143 µM (active) | 0.0719 µM (active) | 0.0653 µM (active) | 0.0574 µM (active) | 0.0399 µM (active) | 0.0451 µM (active) | 0.261 µM (active) | 0.0676 µM (active) | 26.6 µM (inactive) | 0.0507 µM (active) | 0.0736 µM (active) | 0.44 µM (active) | 0.121 µM (active) | 0.0608 µM (active) | 0.731 µM (active) | 0.0598 µM (active) | 0.0573 µM (active) |
| N=C(CCl)NC1CN2CCC1CC2 (stereo not given) | > 100 µM (inactive) | > 100 µM (inactive) | > 100 µM (inactive) | > 100 µM (inactive) | > 100 µM (inactive) | 19.4 µM (inactive) | > 100 µM (inactive) | > 100 µM (inactive) | > 100 µM (inactive) | 66.7 µM (inactive) | 48.3 µM (inactive) | 56.1 µM (inactive) | 27.4 µM (inactive) | 49.1 µM (inactive) | > 100 µM (inactive) | > 100 µM (inactive) | > 100 µM (inactive) | 87.7 µM (inactive) | > 100 µM (inactive) | 50.9 µM (inactive) |
